# According to patent US4959356A, “Porphyrins for boron neutron capture therapy” (The United States of America as represented by the United …, priority 1989, dated 1990):
# Where two headings read alike, the source gives them in different places.
# Columns and labels:
# [1] = test system: tumor cell; conditions: in vitro; cited from earlier work
# [2] = test system: transplanted Harding-Passey melanomas; design: species or system BALB/c mice; conditions: mouse, in vivo
# Protocol: The porphyrins of the present invention were tested for biodistribution and tumor uptake. BALB/c mice carrying transplanted Harding-[…] melanomas subcutaneously on the thigh or abdomen were given six intraperitoneal 0.5 mL injections over two days. The injection solutions contained 1 mg of compound/mL which is a total dose of 3 mg/mouse (approx. 150 μg porphyrin/g body weight or 32.2 μg B/g body weight). The compounds of formula II were completely water soluble and were allowed a 2 day clearance period post injection. The boron content was assayed by prompt gamma analysis using the gamma ray from the ^10 B(n,α)^7 Li reaction. Counts from the […] prompt-.tau.-ray are detected and analyzed using a narrow collimated thermal neutron beam from the Medical Research Reactor at Brookhaven National Laboratory. In this method the mice are dissected and whole organs or tissue samples (0.20-1.0 g) are measured for their boron content. […] Table 1 provides data for both the free base (compound of formula II wherein X is 2H) as well as the zinc chelate (compound of formula II wherein X is Zn), while Table 2 provides data for the free base. […] The long retention of porphyrins in tumor tissue can be exploited by waiting at least 4 days after it has cleared out of the blood before irradiation.
Substance,retention in tumor cell [1],boron in the normal brain (in words) [2],crossing of the blood-brain barrier [2],retention of boron in tumor and clearance from blood (in words) [2],tumor to blood ratio (comparison) [2],uptake of boron into the tumor (in words) [2],tumor to blood ratio ([2]; 2880 min),tumor to blood ratio ([2]; 5760 min),"uptake in blood ([2]; ip, 48 h) [μgB/g TISSUE]","uptake in brain ([2]; ip, 48 h) [μgB/g TISSUE]","uptake in kidney ([2]; ip, 48 h) [μgB/g TISSUE]","uptake in liver ([2]; ip, 48 h) [μgB/g TISSUE]","uptake in lung ([2]; ip, 48 h) [μgB/g TISSUE]","uptake in muscle ([2]; ip, 48 h) [μgB/g TISSUE]","uptake in spleen ([2]; ip, 48 h) [μgB/g TISSUE]","uptake in tumor ([2]; ip, 48 h) [μgB/g TISSUE]"
Na2 B12 H11 SH [BSH],does not stay in the tumor cell but is easily washed out,,,,,,,,,,,,,,,
"dipotassium 2,4-bis-[2-(1,2-dicarbaundecaborate(-1))ethenyl]deuteroporphyrin IX [FREE BASE]",,only a small amount of boron in the normal brain,does not cross the blood-brain barrier,retention of boron in the tumor with clearance from the blood over time,higher for the free base,substantial uptake of boron into the tumor,approximately 1:1,approx. 5:1,15.3 ± 1.5,2.0,16.8,38.0 ± 11.9,20.8,3.9,8.5,18.7 ± 3.4
